How the values were obtained:
[1] = biological target: T1, Hepatocyte growth factor receptor (Homo sapiens, UniProt P08581); experiment: Binding affinity to his-tagged wild type c-MET (1050 to 1346 residues) (unknown origin) by surface plasmon resonance analysis
[2] = biological target: T2, Hepatocyte growth factor receptor (Homo sapiens, UniProt P08581, D1228V); experiment: Binding affinity to his-tagged c-MET D1228V mutant (1050 to 1346 residues) (unknown origin) assessed as dissociation constant by surface plasmon resonance analysis
[3] = biological target: T1, Hepatocyte growth factor receptor; experiment: Inhibition of his-tagged wild type c-MET (1050 to 1346 residues) (unknown origin) by ADP-glo assay
[4] = biological target: T2, Hepatocyte growth factor receptor; experiment: Inhibition of his-tagged c-MET D1228V mutant (1050 to 1346 residues) (unknown origin) by ADP-glo assay
[5] = biological target: T1, Hepatocyte growth factor receptor; experiment: Inhibition of his-tagged wild type c-MET (1050 to 1346 residues) (unknown origin) in human NCI-H1993 cells by HTRF analysis; type: cell-based
[6] = biological target: T2, Hepatocyte growth factor receptor; experiment: Inhibition of his-tagged c-MET D1228V mutant (1050 to 1346 residues) (unknown origin) in human NCI-H1993 cells by HTRF analysis; type: cell-based
[7] = biological target: T1, Hepatocyte growth factor receptor; experiment: Binding affinity to his-tagged c-MET (1050 to 1346 residues) (unknown origin) assessed as binding constant (Kon) by surface plasmon resonance analysis
[8] = biological target: T1, Hepatocyte growth factor receptor; experiment: Binding affinity to his-tagged c-MET (1050 to 1346 residues) (unknown origin) assessed as binding constant (Koff) by surface plasmon resonance analysis
[9] = biological target: T1, Hepatocyte growth factor receptor; experiment: Inhibition of wild type c-MET (unknown origin ) at 10 uM relative to control
[10] = biological target: TRAF2 and NCK-interacting protein kinase (Homo sapiens) (UniProt Q9UKE5); experiment: Inhibition of TNIK (unknown origin) at 10 uM relative to control
[11] = biological target: Calcium/calmodulin-dependent protein kinase type 1 (Homo sapiens) (UniProt Q14012); experiment: Inhibition of CAMK1 (unknown origin) at 10 uM relative to control
Chain of Calcium/calmodulin-dependent protein kinase type 1 (Homo sapiens) (Q14012 whole entry, looked up): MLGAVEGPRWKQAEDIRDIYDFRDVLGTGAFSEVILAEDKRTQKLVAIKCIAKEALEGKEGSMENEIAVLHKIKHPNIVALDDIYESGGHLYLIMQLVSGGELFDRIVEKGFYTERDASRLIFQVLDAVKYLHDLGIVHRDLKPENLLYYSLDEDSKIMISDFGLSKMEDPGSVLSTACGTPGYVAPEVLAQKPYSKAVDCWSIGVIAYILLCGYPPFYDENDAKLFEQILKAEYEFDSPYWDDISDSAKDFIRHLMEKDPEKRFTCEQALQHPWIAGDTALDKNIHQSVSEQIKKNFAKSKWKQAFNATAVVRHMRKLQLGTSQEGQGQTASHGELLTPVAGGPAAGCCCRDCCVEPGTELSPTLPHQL

Chain of TRAF2 and NCK-interacting protein kinase (Homo sapiens) (Q9UKE5 whole entry, looked up): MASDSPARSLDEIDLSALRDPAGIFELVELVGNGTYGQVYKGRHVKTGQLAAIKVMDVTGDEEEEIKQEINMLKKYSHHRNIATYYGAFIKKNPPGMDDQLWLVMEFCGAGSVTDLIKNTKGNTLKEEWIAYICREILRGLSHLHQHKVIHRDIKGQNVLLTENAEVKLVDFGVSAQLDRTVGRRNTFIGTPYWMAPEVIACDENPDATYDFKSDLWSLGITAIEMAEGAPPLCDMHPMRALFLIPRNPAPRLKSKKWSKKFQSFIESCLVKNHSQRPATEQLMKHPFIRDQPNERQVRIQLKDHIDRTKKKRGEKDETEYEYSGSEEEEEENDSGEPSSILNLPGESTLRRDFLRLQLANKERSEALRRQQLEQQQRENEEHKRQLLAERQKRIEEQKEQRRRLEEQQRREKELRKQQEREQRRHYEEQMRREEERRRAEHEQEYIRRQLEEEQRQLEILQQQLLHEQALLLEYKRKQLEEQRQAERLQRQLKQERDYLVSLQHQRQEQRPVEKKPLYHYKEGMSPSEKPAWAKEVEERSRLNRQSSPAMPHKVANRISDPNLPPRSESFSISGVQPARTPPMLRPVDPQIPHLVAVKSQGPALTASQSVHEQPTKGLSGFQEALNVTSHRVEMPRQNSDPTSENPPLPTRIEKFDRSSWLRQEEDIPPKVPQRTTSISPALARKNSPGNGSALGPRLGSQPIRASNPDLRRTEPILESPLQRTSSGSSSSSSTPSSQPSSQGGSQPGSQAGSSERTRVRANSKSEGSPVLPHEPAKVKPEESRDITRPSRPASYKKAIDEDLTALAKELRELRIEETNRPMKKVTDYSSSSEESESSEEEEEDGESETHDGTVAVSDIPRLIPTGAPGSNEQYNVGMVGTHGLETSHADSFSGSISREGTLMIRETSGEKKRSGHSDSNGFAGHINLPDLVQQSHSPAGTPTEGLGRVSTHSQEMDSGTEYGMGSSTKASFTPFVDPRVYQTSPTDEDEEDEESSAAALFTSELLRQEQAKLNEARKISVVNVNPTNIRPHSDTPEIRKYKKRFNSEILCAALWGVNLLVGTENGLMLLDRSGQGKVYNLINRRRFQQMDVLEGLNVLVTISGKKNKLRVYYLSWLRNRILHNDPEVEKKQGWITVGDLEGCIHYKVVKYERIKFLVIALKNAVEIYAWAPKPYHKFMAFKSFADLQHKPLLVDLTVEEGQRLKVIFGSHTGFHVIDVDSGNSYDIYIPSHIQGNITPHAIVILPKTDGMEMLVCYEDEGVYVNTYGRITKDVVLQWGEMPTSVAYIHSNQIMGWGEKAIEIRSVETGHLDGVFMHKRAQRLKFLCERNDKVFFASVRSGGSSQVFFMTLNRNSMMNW

SMILES	Kd [1] [µM]	Kd [2] [µM]	IC50 [3] [µM]	IC50 [4] [µM]	IC50 ([5]; nci-h1993)	IC50 ([6]; nci-h1993)	K [7]	koff [8] [s⁻¹]	IC50 ([5]; read-out: IC50) [µM]	IC50 ([6]; read-out: IC50) [µM]	inhibition [9] [%]	inhibition [10] [%]	inhibition [11] [%]
Cc1ccc(-c2ccc3c(C)n[nH]c3c2)c2c1[C@@H](N(C)C(=O)c1ncccc1C(F)F)CCC2	2.8	5.3	4.94	11	Not Active	Not Active							
Cc1ccc(-c2ccc3c(C)n[nH]c3c2)c2c1C(N(C)C(=O)c1ncccc1C(F)F)CCC2 (racemic)	> 20	1.4					3.7 10^3/M/s	0.0053					
Cc1ccc(-c2ccc3c(C)n[nH]c3c2)c2c1[C@H](N(C)C(=O)c1ncccc1C(F)F)CCC2	7.2	0.65	0.9	0.09					> 30	12	> 70	> 70	> 70
